Assay results published in patent publication US8324279B2, “Compositions and methods for inhibiting an isoform of human manganese superoxide dismutase” (MitoTek, LLC, priority 2003, dated 2012).
“Also recorded” adds a separate entry of the source.

Legend:
altMnSODreport = test: Testing of drugs for toxicity with the reporter gene system; assay type: cell-based; conditions: cells comprising the reporter gene system
Protocol: Drugs are tested alone or in combination in cancerous or diseased cells and in healthy cells. The compounds are added to cells comprising the reporter gene system. The induction of the reporter is characterized in the absence and the presence of the drug(s).
Breast cancer cell line, MDA-MB-435, Her-2/neu over-expressing (ATCC), fibroblast cells lines NIH3T3 and B104, which are NIH3T3 cells transfected with the rat ErbB2/Her2 oncogene, and normal primary cells (Clonetics; rat cardiomyocytes, donated by Kathryn Maschhoff, MD PhD, Neonatology, University of Pennsylvania) are treated with doxorubicin alone and in combination with the rat ErbB2/Her2 17.6.4 monoclonal antibody, which downregulates the human and rat Her2 receptor (Zhang et al., 1999)(Oncogene), and Herceptin™ (Genentech). It is also determined if the Her2 mAbs induces isoMnSOD expression in untransfected cells and cells transfected with altMnSODreport. A dose-response curve is established, using western immunoblot analysis of the isoMnSOD protein and the expression of the reporter construct. A similar analysis is performed for doxorubicin treatment of cells. Both treatments are analyzed for their effects on mtDNA stability by Southern hybridization analysis, induction of lipid peroxidation by immunodetection of HNE-modified proteins, and induction of apoptosis by activation of caspases 9 and 3.

[1] = test system: adult cardiomyocyte explants; test: Doxorubicin induction of isoMnSOD expression in adult heart explants (Western Blot); assay type: cell-based, rat; conditions: 3 days, 0.1 nM to 1.0 μM Doxorubicin, AdvDMEM 2% FBS, FIG. 3
Description: Adult cardiomyocytes were isolated and purified following the combination of perfusion techniques (Borg et al. Recognition of extracellular matrix components by neonatal and adult cardiac myocytes. Dev Biol. 1984; 104:86-96) and an attachment procedure (Bugaisky L B, Zak R. Differentiation of adult rat cardiac myocytes in cell culture. Circ Res. 1989; 64:493-500) as described by Sil et al. (Sil et al. Myotrophin in human cardiomyopathic heart. Circ Res. 1993; 73:98-108). Briefly, after rats (5 weeks old) were killed by decapitation, the hearts were aseptically excised and residual blood was removed. The heart was perfused in Joklik's medium (containing Joklik's minimal essential medium, 25 mmol/L glutamic acid, 30 mmol/L taurine, and 1 mmol/L adenosine) without recirculation on a modified Langendorff apparatus for approximately 10 minutes at 37° C. The perfusion was then continued for 30 minutes at the same temperature, with recirculation in Joklik's medium containing collagenase type II (100 U/mL). After perfusion, the ventricles were cut into small pieces and tritulated in 0.05% Trypsin/EDTA for 10 min. Cardiac explants were cultured overnight on laminin-coated (20 μg per well) 35-mm six-well plates in medium 199 containing 5% FBS, 5 mM creatine, 2 mM L-carnitine, and 5 mM taurine. […]

isoMnSOD [2] = test: Peroxidative assay of native mitochondrial extracts from compound-treated pancreatic explants (ROS-activity blot); assay type: cell-based, pig; conditions: pancreatic explant cultured 1 hr at 37° C. with equal volume of 2 μM compound; FIG. 1
Protocol: Recombinant and mammalian detergent extracts of native mitochondrial proteins were separated in a 7% PAGE gel without SDS containing 375 mM Tris pH 8.2 at 100 volts for 1.5 hr. After electrotransfer of proteins to nitrocellulose using transfer buffer without SDS, peroxidative activity was measured directly upon the filter by their incubation with 0.5 ml of the Femtomole luminol solution (Pierce) containing 1 mM H2O2 and exposing to x-ray film or other means of detecting chemiluminescence.
F10 medium was used throughout the procedure. Pancreas (8 grams) from a 3 kilo pig was minced, washed twice, and 1 g of tissue was resuspended in 5 ml of FIO medium. […] Explants were stored frozen at −70° C. Tissue was homogenized in Buffer A at 4° C. and mitochondria was isolated by differential centrifugation and stored frozen at −70° C. Peroxidative assay of native mitochondrial extracts analyzed by the ROS-activity blot.

isoMnSOD [3] = biological target: T1, isoMnSOD (Homo sapiens, UniProt P04179); test: Detection of inhibitors bound to isoMnSOD (immunoprecipitation/western blot); conditions: anti-dopamine or anti-serotonin antibody; FIG. 2A and 2B
T1 sequence (P04179 25-183 isoform P04179-2 limits assumed): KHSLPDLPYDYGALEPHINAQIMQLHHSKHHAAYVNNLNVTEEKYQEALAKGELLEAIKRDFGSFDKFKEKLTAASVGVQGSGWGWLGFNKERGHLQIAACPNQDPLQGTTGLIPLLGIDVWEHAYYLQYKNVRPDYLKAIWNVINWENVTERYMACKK
Protocol: Covalent modification of the MnSOD-Exon3-deleted isoform was measured by a combined immuneprecipitation/western blot analysis. Immunoblots for detecting AA-DA, EPA-DA, DHA-DA, C18:4(ω-3)-DA adducts were performed using anti-dopamine rabbit polyclonal (Chemicon) and anti-serotonin goat polyclonal antibodies (ImmunoStar), respectively. After immunoprecipitating using an antibody against the inhibitor, isoMnSOD was detected as described above.

isoMnSOD [4] = test: Pro-oxidant activity of isoMnSOD, at least one of the assays provided in the Examples; conditions: according to at least one of the assays provided in the Examples
Protocol: (§1) Each test compound was prepared by mixing 5 μL of a 1 mM test compound stock solution in ethanol with 5 μL of 0.1 M KOH, followed by the addition of 5 ml of TBS for a final concentration of 1 μM test compound. Equal amounts of native protein extracts from pancreatic mitochondria (obtained according to the protocol of Example 5) were loaded in separate wells and resolved in a 7% PAGE gel without SDS, electrotransferred to PVDF and divided into strips. Each PVDF strip was incubated with 1 μM of test compound in TBS for 30 minutes, washed twice in TBS for 20 minutes, and the peroxidative activity of isoMnSOD was measured by incubation of each strip with 1 mM H2O2 in 0.4 ml of the luminol solution contained within the Femtomole chemiluminescence assay kit (Pierce) and exposed to x-ray film (FIG. 4).
Peroxidative assay of native mitochondrial extracts analyzed by the ROS-activity blot.

isoMnSOD [5] = test: Drug inhibition method: peroxidative activity of isoMnSOD on PVDF strips (ROS-activity blot); conditions: 1 μM test compound for 30 minutes; 1 mM H2O2, luminol chemiluminescence; FIG. 4
Protocol: as §1
All procedures were carried out at 4° C.

binding to isoMnSOD (covalent modification of the MnSOD-Exon3-deleted isoform) (isoMnSOD [3]) | Compound | expression of altMnSOD report (altMnSODreport) | isoMnSOD expression [1] | mitochondrial peroxidase activity (isoMnSOD [2]) | pro-oxidant activity of isoMnSOD (isoMnSOD [4]) | peroxidative activity of isoMnSOD (isoMnSOD [5])
– | COc1cccc2c1C(=O)c1c(O)c3c(c(O)c1C2=O)C[C@@](O)(C(=O)CO)C[C@@H]3O[C@H]1C[C@H](N)[C@H](O)[C@H](C)O1 [Doxorubicin] | causes an increase in expression of altMnSOD report | induced isoMnSOD expression; also recorded: induces the expression of isoMnSOD | – | – | –
able to bind to isoMnSOD | CC/C=C\C/C=C\C/C=C\C/C=C\C/C=C\C/C=C\CCC(=O)NCCc1ccc(O)c(O)c1 [docosahexaenoyl (DHA)-dopamine, docosahexaenoyl dopamine] | – | – | inhibited the mitochondiral peroxidase activity | found to inhibit pro-oxidant activity of isoMnSOD | inhibit peroxidative activity more significantly than the other compounds
– | CC/C=C\C/C=C\C/C=C\C/C=C\C/C=C\CCCC(=O)NCCc1ccc(O)c(O)c1 [eicosapentaenoyl (EPA)-dopamine, eicosapentaenoyl dopamine] | – | – | did not inhibit peroxidase activity to the same effect | found to inhibit pro-oxidant activity of isoMnSOD | inhibit peroxidative activity more significantly than the other compounds
able to bind to isoMnSOD | C18:4(ω-3)-dopamine | – | – | inhibited the mitochondiral peroxidase activity | found to inhibit pro-oxidant activity of isoMnSOD | inhibit peroxidative activity more significantly than the other compounds

Compound | binding to isoMnSOD (covalent modification of the MnSOD-Exon3-deleted isoform) (isoMnSOD [3]) | expression of altMnSOD report (altMnSODreport) | isoMnSOD expression [1] | mitochondrial peroxidase activity (isoMnSOD [2]) | pro-oxidant activity of isoMnSOD (isoMnSOD [4]) | peroxidative activity of isoMnSOD (isoMnSOD [5])
CCCCC/C=C\C/C=C\C/C=C\C/C=C\CCCC(=O)NCCc1c[nH]c2ccc(O)cc12 [arachidonoyl-serotonin, arachidonoyl serotonin] | able to bind to isoMnSOD | – | – | inhibited the mitochondiral peroxidase activity | found to inhibit pro-oxidant activity of isoMnSOD | –
